Like-named read-outs stand apart in the source and are kept apart here.
Legend:
[1] = Pharmacokinetics experiments of the salts of compound (I), oral capsules; assay type: in vivo, Beagle dogs
Protocol: The free base 1-(5-(tert-butyl)isoxazol-3-yl)-3-(4-((4-(3-morpholinopropoxy)phenyl) ethynyl)phenyl)urea, various salts or crystalline forms thereof were filled into capsules for oral administration respectively. Male Beagle dogs (6-10 kg) were grouped randomly, each group has 3, one was administered with free base by oral, others with various salts or crystalline forms thereof by oral at a dosage of 5 mg/kg. Blood samples were collected at 0.25, 0.5, 1.0, 2.0, 4.0, 6.0, 8.0, 12 and 24 hours after the administration. Standard curve was plotted based on concentrations of the samples in a suitable range, the concentrations of test compounds in plasma samples were determined by using Agilent 6430 LC-MS/MS under MRM mode, and quantitative analysis was performed. Pharmacokinetic parameters were calculated according to drug concentration-time curve using a noncompartmental method by WinNonLin 6.3 software.

[2] = for Appearance / Purity/%: illumination 4500±500 lx, UV; for Purity/%: HPLC
[3] = for Purity/%: HPLC
Description: Samples were taken at fifth and tenth day, appearance was observed and purity was detected by HPLC.

[4] = dog, male Beagle dogs, oral capsule, 5 mg/kg, plasma
[5] = male Beagle dogs, oral capsule, 5 mg/kg, plasma
[6] = High humidity (25° C., RH 90% ± 5%), 0 day
[7] = High humidity (25° C., RH 90% ± 5%), 5 days
[8] = High humidity (25° C., RH 90% ± 5%), 10 days
[9] = High temperature (60° C. ± 2° C.), 0 day
[10] = High temperature (60° C. ± 2° C.), 5 days
[11] = High temperature (60° C. ± 2° C.), 10 days

`CC(C)(C)c1cc(NC(=O)Nc2ccc(C#Cc3ccc(OCCCN4CCOCC4)cc3)cc2)no1` [Free base, 1-(5-(tert-butyl)isoxazol-3-yl)-3-(4-((4-(3-morpholinopropoxy)phenyl)ethynyl)phenyl)urea] showed an AUC(0-inf) [1, 4] of 423 ng·h/mL, an AUC(0-t) [1, 4] of 389 ng·h/mL and an MRT inf [1, 4] of 7.52 h. It also gave a half-life [1, 4] of 5.95 h, a Cmax ([1]; dog, male Beagle dogs, oral capsule, 5 mg/kg, plasma, read-out: Cmax) of 60.9 ng/mL and a Tmax ([1]; dog, male Beagle dogs, oral capsule, 5 mg/kg, plasma, read-out: Tmax) of 1.67 h.
With `CC(C)(C)c1cc(NC(=O)Nc2ccc(C#Cc3ccc(OCCCN4CCOCC4)cc3)cc2)no1.O=S(=O)(O)c1ccccc1` [Benzene sulfonate crystaline form I] the “change of appearance and purity” value ([2]; illumination) was “have not been changed distinctly”, the Appearance ([2]; 0 day) was “yellow” and the Purity/% ([2]; 0 day) was 98.61%. The Appearance ([2]; 5 days) was “yellow”, the Purity/% ([2]; 5 days) was 98.67% and the Appearance ([2]; 13 days) was “yellow”. The Purity/% ([2]; 13 days) was 98.71%, the absorption ([1]; beagle dogs, oral 5 mg/kg) was “faster” and the “exposure level compared with the free base” value ([1]; beagle dogs, oral 5 mg/kg) was “higher”. For the same compound, the AUCINF [1, 5] was 592 ng·h/mL, the AUClast [1, 5] was 575 ng·h/mL and the Cmax [1, 5] was 92.3 ng/mL. It also gave an MRTINF [1, 5] of 6.55 h, a T1/2 [1, 5] of 5.26 h and a Tmax [1, 5] of 1 h. The Appearance [3, 6] was “yellow”, the Purity/% [3, 6] was 98.61% and the Appearance [3, 7] was “yellow”. For the same compound, the Hygroscopic weight gain/% [3, 7] was 0.388%, the Purity/% [3, 7] was 98.59% and the Appearance [3, 8] was “yellow”. The Hygroscopic weight gain/% [3, 8] was 1.100%, the Purity/% [3, 8] was 98.59% and the Appearance [3, 9] was “yellow”. The Purity/% [3, 9] was 98.61%, the Appearance [3, 10] was “yellow” and the Purity/% [3, 10] was 98.64%. The Appearance [3, 11] was “yellow”, the Purity/% [3, 11] was 98.61% and the hygroscopicity characteristics ([3]; from weight gain under high humidity for 10 days) was “slightly hygroscopicity (less than 2% but no less than 0.2%)”. The “change of appearance and purity” value ([3]; high humidity (25° C., RH 90%±5%)) was “have not been changed distinctly” and the “change of appearance and purity” value ([3]; high temperature (60° C.±2° C.)) was “have not been changed distinctly”.
For `Br.CC(C)(C)c1cc(NC(=O)Nc2ccc(C#Cc3ccc(OCCCN4CCOCC4)cc3)cc2)no1` [Hydrobromide crystaline form I], the AUCINF [1, 5] was 225 ng·h/mL, the AUClast [1, 5] was 401 ng·h/mL and the Cmax [1, 5] was 36.4 ng/mL. For the same compound, the MRTINF [1, 5] was 8.54 h, the T1/2 [1, 5] was 6.64 h and the Tmax [1, 5] was 1.33 h.
`CC(C)(C)c1cc(NC(=O)Nc2ccc(C#Cc3ccc(OCCCN4CCOCC4)cc3)cc2)no1.Cl` [Hydrochloride crystaline form I] gave an AUCINF [1, 5] of 371 ng·h/mL, an AUClast [1, 5] of 358 ng·h/mL and a Cmax [1, 5] of 51.2 ng/mL. For the same compound, the MRTINF [1, 5] was 6.5 h, the T1/2 [1, 5] was 4.86 h and the Tmax [1, 5] was 1.67 h.

Source: patent US11213529B2, “Salt of substituted urea derivative and use thereof in medicine” (SUNSHINE LAKE PHARMA CO. LTD., priority 2017, dated 2022)
